PMC7827628, “Effect of Sulfonamides and Their Structurally Related Derivatives on the Activity of ι-Carbonic Anhydrase from Burkholderia territorii” (International Journal of Molecular Sciences, 2021)

What follows are molecules tested against BteCAι (assay: stopped-flow CO2 hydration assay). Settings: CO2 substrate; 20 °C, pH 7.5, 10 mM HEPES (methods give 20 mM TRIS pH 8.3, 20 mM NaClO4); 15 min preincubation.
Format: biochemical, Burkholderia territorii

Structure (SMILES) | Ki
CCN[C@H]1CN(CCCOC)S(=O)(=O)c2sc(S(N)(=O)=O)cc21 [BRZ, brinzolamide] | 3700 nM
NS(=O)(=O)c1nnc(NS(=O)(=O)c2ccccc2)s1 [BZA, benzolamide] | 724 nM
Cc1ccc(-c2cc(C(F)(F)F)nn2-c2ccc(S(N)(=O)=O)cc2)cc1 [CLX, celecoxib] | 960 nM
NS(=O)(=O)c1cc(Cl)c(Cl)c(S(N)(=O)=O)c1 [DCP, dichlorphenamide] | 825 nM
NS(=O)(=O)NCCNc1nonc1/C(=N/O)Nc1ccc(F)c(Br)c1 [EPA, epacadostat] | 955 nM
NC(N)=Nc1nc(CSCCC(N)=NS(N)(=O)=O)cs1 [FAM, Famotidine] | 943 nM
NS(=O)(=O)c1cc2c(cc1Cl)NCNS2(=O)=O [HCT, hydrochlorothiazide] | 780 nM
NS(=O)(=O)c1ccc(S(=O)(=O)Nc2cccc3c(Cl)c[nH]c23)cc1 [IND, Indisulam] | 638 nM
O=C1NS(=O)(=O)c2ccccc21 [SAC, Saccharin] | 7080 nM
CCN1CCCC1CNC(=O)c1cc(S(N)(=O)=O)ccc1OC (centres unmarked) [SLP, Sulpiride] | 958 nM
NS(=O)(=O)c1ccc(N2CCCCS2(=O)=O)cc1 [SLT, sulthiame] | 954 nM
CC1(C)O[C@@H]2[C@@H](CO[C@@]3(COS(N)(=O)=O)OC(C)(C)O[C@@H]23)O1 [TPM, topiramate] | 787 nM
Cc1onc(-c2ccccc2)c1-c1ccc(S(N)(=O)=O)cc1 [VLX, valdecoxib] | 934 nM
NS(=O)(=O)Cc1noc2ccccc12 [ZNS, Zonisamide] | 806 nM
NCc1ccc(S(N)(=O)=O)cc1 [compound 5, 5] | 97 nM
Nc1ccc(S(N)(=O)=O)cc1Br [compound 9, 9] | 96 nM
Nc1nccc(Nc2ccc(S(N)(=O)=O)cc2)n1 [compound 19, 19] | 93 nM
